The values that follow come from ChEMBL document CHEMBL4823243, “Synergistic induction of apoptosis in resistant head and neck carcinoma and leukemia by alkoxyamide-based histone deacetylase inhibitors” (Eur J Med Chem, 2021).

For orientation: IC50 means the midpoint of a concentration-inhibition curve.

Structures are written as SMILES. Active and inactive are the calls of the source. The calls are words filed in the database; no cut-off is given here.

Experiment [1] concerns the target T1, Histone deacetylase (Homo sapiens) (UniProt Q13547+O15379+Q9UBN7+Q92769+Q9UQL6+Q8WUI4+Q9BY41+Q96DB2+P56524+Q9UKV0+Q969S8). As to the kind of experiment: Inhibition of HDAC in human Cal27CisR cells assessed as combination index at 1.5 uM measured in presence of 20 uM cDDP by MTT-based Chou-Talalay method. It is filed as cell-based.
Experiment [2] has as its target T1, Histone deacetylase (Homo sapiens). As to the kind of experiment: Inhibition of HDAC in human CAL-27 cells assessed as combination index at 2 uM measured in presence of 5 uM cDDP by MTT-based Chou-Talalay method. It is filed as cell-based.
For experiment [3] the target is unchanged. Briefly: Inhibition of HDAC in human CAL-27 cells assessed as potentiation of cisplatin-induced cytotoxicity by measuring fold reduction in cisplatin IC50 at 2 to 3 uM pretreated for 48 hrs followed by cisplatin addition and measured after 72 hrs by MTT assay relative to cisplatin alone. It is filed as cell-based. As to conditions: dose 2-3 µM, time 120.0 hrs. In general terms: Tetrazolium assays rely on reduction of a dye to a coloured formazan, in cell work by metabolically active cells.

The target is the same in experiment [4]. Briefly: Inhibition of HDAC in human CAL-27 cells assessed as combination index at 0.5 uM measured in presence of 10 uM cDDP by MTT-based Chou-Talalay method. It is filed as cell-based.
Experiment [5] relates to CAL-27. As to the kind of experiment: Induction of apoptosis in human CAL-27 cells assessed as caspase 7 activation at 2 uM in presence of pretreated for 24 hrs followed by cisplatin treatment and further incubated for 18 hrs by Caspase3/7 detection reagent based assay. To be noted: time 42.0 hrs. It counts as functional, cell-based.
Experiment [6] deals with T1, Histone deacetylase (Homo sapiens). Briefly: Inhibition of HDAC in human CAL-27 cells assessed as combination index at 2 uM measured in presence of 10 uM cDDP by MTT-based Chou-Talalay method. It counts as cell-based.
The target is the same in experiment [7]. Briefly: Inhibition of HDAC in human CAL-27 cells assessed as combination index at 1 uM measured in presence of 10 uM cDDP by MTT-based Chou-Talalay method. It counts as cell-based.
The target is the same in experiment [8]. Briefly: Inhibition of HDAC in human Cal27CisR cells assessed as combination index at 3 uM measured in presence of 10 uM cDDP by MTT-based Chou-Talalay method. It is filed as cell-based.
Experiment [9] has the same target. Briefly: Inhibition of HDAC in human Cal27CisR cells assessed as combination index at 1 uM measured in presence of 20 uM cDDP by MTT-based Chou-Talalay method. It is filed as cell-based.
The target is the same in experiment [10]. As to the kind of experiment: Inhibition of HDAC in human Cal27CisR cells assessed as combination index at 2 uM measured in presence of 20 uM cDDP by MTT-based Chou-Talalay method. It is filed as cell-based.
Experiment [11] has the same target. As to the kind of experiment: Inhibition of HDAC in human Cal27CisR cells assessed as combination index at 3 uM measured in presence of 50 uM cDDP by MTT-based Chou-Talalay method. It counts as cell-based.
The target is the same in experiment [12]. As to the kind of experiment: Inhibition of HDAC in human Cal27CisR cells assessed as combination index at 1.5 uM measured in presence of 50 uM cDDP by MTT-based Chou-Talalay method. It counts as cell-based.
For experiment [13] the target is unchanged. Briefly: Inhibition of HDAC in human Cal27CisR cells assessed as combination index at 1 uM measured in presence of 50 uM cDDP by MTT-based Chou-Talalay method. It counts as cell-based.
Experiment [14] shares this target. Briefly: Inhibition of HDAC in human Cal27CisR cells assessed as combination index at 2 uM measured in presence of 50 uM cDDP by MTT-based Chou-Talalay method. It is filed as cell-based.
Experiment [15] has the same target. Briefly: Inhibition of HDAC in human Cal27CisR cells assessed as potentiation of cisplatin-induced cytotoxicity by measuring fold reduction in cisplatin IC50 at 2 to 3 uM pretreated for 48 hrs followed by cisplatin addition and measured after 72 hrs by MTT assay relative to cisplatin alone. As to conditions: dose 2-3 µM, time 120.0 hrs. It is filed as cell-based.

Experiment [16] has as its system CAL-27. As to the kind of experiment: Induction of apoptosis in cisplatin resistant human CAL-27 cells assessed as caspase 3 activation at 2 uM pretreated for 24 hrs followed by cisplatin treatment and further incubated for 18 hrs by Caspase3/7 detection reagent based assay. It is filed as functional, cell-based. To be noted: time 42.0 hrs.
Experiment [17] has as its target T1, Histone deacetylase (Homo sapiens). Briefly: Inhibition of HDAC in human Cal27CisR cells assessed as combination index at 3 uM measured in presence of 20 uM cDDP by MTT-based Chou-Talalay method. It counts as cell-based.
For experiment [18] the target is unchanged. As to the kind of experiment: Inhibition of HDAC in human Cal27CisR cells assessed as combination index at 0.2 uM measured in presence of 50 uM cDDP by MTT-based Chou-Talalay method. It is filed as cell-based.
Experiment [19] shares this target. Briefly: Inhibition of HDAC in human CAL-27 cells assessed as combination index at 0.3 uM measured in presence of 2 uM cDDP by MTT-based Chou-Talalay method. It counts as cell-based.
Experiment [20] shares this target. Briefly: Inhibition of HDAC in human Cal27CisR cells assessed as combination index at 0.2 uM measured in presence of 20 uM cDDP by MTT-based Chou-Talalay method. It is filed as cell-based.
Experiment [21] shares this target. As to the kind of experiment: Inhibition of HDAC in human Cal27CisR cells assessed as combination index at 0.5 uM measured in presence of 20 uM cDDP by MTT-based Chou-Talalay method. It counts as cell-based.
Experiment [22] shares this target. Briefly: Inhibition of HDAC in human Cal27CisR cells assessed as potentiation of cisplatin-induced cytotoxicity by measuring fold reduction in cisplatin IC50 at 0.3 to 0.5 uM pretreated for 48 hrs followed by cisplatin addition and measured after 72 hrs by MTT assay relative to cisplatin alone. It is filed as cell-based. To be noted: dose 0.3-0.5 µM, time 120.0 hrs.

Experiment [23] has the same target. Briefly: Inhibition of HDAC in human Cal27CisR cells assessed as combination index at 0.1 uM measured in presence of 10 uM cDDP by MTT-based Chou-Talalay method. It counts as cell-based.
Experiment [24] has the same target. Briefly: Inhibition of HDAC in human Cal27CisR cells assessed as combination index at 0.4 uM measured in presence of 10 uM cDDP by MTT-based Chou-Talalay method. It counts as cell-based.
For another experiment, the system named is HL-60. Briefly: Induction of apoptosis in human HL-60 cells assessed as caspase 3/7 activation incubated for 48 hrs by Caspase3/7 detection reagent based assay. It counts as functional, cell-based. To be noted: HL-60, 48 h.
A further experiment addresses Histone deacetylase. Briefly: Inhibition of HDAC in human Cal27CisR cells assessed as potentiation of cisplatin-induced cytotoxicity by measuring cisplatin IC50 at 0.3 to 0.5 uM pretreated for 48 hrs followed by cisplatin addition and measured after 72 hrs by MTT assay (reference value: 3.57 uM). It is filed as cell-based.
The test system of experiment [25] is CAL-27. Briefly: Induction of apoptosis in human CAL-27 cells assessed as caspase 3 activation at 0.3 uM pretreated for 24 hrs followed by cisplatin treatment and further incubated for 18 hrs by Caspase3/7 detection reagent based assay. To be noted: time 42.0 hrs. It counts as functional, cell-based.
The target of experiment [26] is T1, Histone deacetylase (Homo sapiens). As to the kind of experiment: Inhibition of HDAC in human CAL-27 cells assessed as combination index at 0.3 uM measured in presence of 10 uM cDDP by MTT-based Chou-Talalay method. It is filed as cell-based.
Experiment [27] shares this target. Briefly: Inhibition of HDAC in human CAL-27 cells assessed as combination index at 0.25 uM measured in presence of 2 uM cDDP by MTT-based Chou-Talalay method. It is filed as cell-based.
Experiment [28] shares this target. Briefly: Inhibition of HDAC in human CAL-27 cells assessed as combination index at 0.1 uM measured in presence of 5 uM cDDP by MTT-based Chou-Talalay method. It counts as cell-based.

`O=C(CCCCCONC(=O)c1nccc2ccccc12)NO`: the CI in [1] was 0.55; in experiment [2] it was 0.2; in [4] it was 0.58; in experiment [6], 0.14; in experiment [7] it was 0.34; in experiment [8], 0.24. Also, the CI in [9] amounted to 1.42; in [10], 0.35; in [11], 0.39; in [12], 0.38; in [13], 0.47; in experiment [14] it was 0.42. For the same molecule, the CI in [17] was determined as 0.21. Moreover, the Ratio IC50 was determined as 3.25 in experiment [3] and 10 in [15]. Further, the outcome in the experiment on CAL-27 [5] and with CAL-27 [16] was Active.
Regarding `O=C(CCCCCONC(=O)c1ccc2ccccc2n1)NO`, the CI in experiment [18] was 0.5; in experiment [19] it was 0.88; in experiment [20], 0.55; in experiment [21] it was 0.33; in [23] it was 2.62; in experiment [24], 0.11. The CI in [26] amounted to 0.02. Further, in experiment [22], the Ratio IC50 was determined as 13.2. The IC50 in the experiment on HL-60 worked out at 0.214 µM; on Histone deacetylase, 3.67 µM. The outcome in the experiment on CAL-27 [25] was Active.
As to `O=C(CCCCCONC(=O)c1cc2ccccc2[nH]1)NO`, the CI worked out at 0.47 in experiment [18]; 0.37 in experiment [27]; 0.35 in experiment [19]; 0.43 in experiment [20]; 0.53 in experiment [28]; 0.21 in experiment [21]. Besides, the CI in [23] was 4.3; in experiment [24], 0.59; in [26] it was 0.02. The Ratio IC50 in [22] worked out at 7.36. Further, the IC50 at Histone deacetylase is 6.59 µM. In addition, the outcome with CAL-27 [25] was Active.
